Test results from ChEMBL document CHEMBL1201862, “PubChem BioAssay data set” (2004).
Activity calls are given as the source filed them.

Assays:
[1] = growth suppression of beta-catenin-knockout colon cells, dose response, cell-based, HCT116, human colon tumor (AID 1045); format: functional;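 further: HCT116 colon tumor cells with beta catenin knocked out; cells exposed to compound for 60 hours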
[2] = growth suppression of PTEN-null colon cells, dose response, cell-based, HCT116 PTEN knockout (AID 1047); format: functional;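 further: HCT116 colon tumor cells with PTEN knocked out; cells exposed to compound for 60 hours before readout; potency for loss of cell viability measured by luminescence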
[3] = target: T1, Calpain-2 catalytic subunit (Sus scrofa, UniProt P43367); experiment: pig calpain II inhibitor potency, dose response, biochemical, fluorogenic peptide substrate (AID 1420); format: functional
T1 sequence (P43367 whole entry): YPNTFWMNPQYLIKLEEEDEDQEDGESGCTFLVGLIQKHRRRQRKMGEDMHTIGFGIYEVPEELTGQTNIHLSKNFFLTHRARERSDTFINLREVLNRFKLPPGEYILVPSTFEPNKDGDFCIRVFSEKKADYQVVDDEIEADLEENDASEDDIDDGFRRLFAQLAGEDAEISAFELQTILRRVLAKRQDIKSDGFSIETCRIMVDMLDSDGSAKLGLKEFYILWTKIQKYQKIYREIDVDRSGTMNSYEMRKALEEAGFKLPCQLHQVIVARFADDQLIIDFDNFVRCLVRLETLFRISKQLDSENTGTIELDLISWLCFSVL

[4] = target: Cytochrome P450 2D6 (Homo sapiens, UniProt P10635);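 further: CYP2D6 member of a cytochrome P450 panel assay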
[5] = Shn3 3'UTR reporter inhibitors, dose response, cell-based, Clone20 osteoblasts, firefly luciferase, cherry-picked (AID 624132); format: functional;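 further: firefly luciferase luminescence from reporter carrying the Shn3 3'UTR in osteoblasts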
[6] = HepG2 cell cytotoxicity, dose response, cytotoxicity control for Shn3 inhibitor project, CellTiter-Glo, cherry-picked (AID 624134); format: functional, cell-based
[7] = control 3'UTR Renilla luciferase suppression, dose response, counter-screen for Shn3 inhibitor project, cell-based, Clone20-Shn3RL, cherry-picked (AID 624133); format: functional
[8] = target: T2, Heat shock factor protein 1 (Mus musculus, UniProt P38532); experiment: inhibition of MG132-induced HSE-luciferase signal, confirmation, cell-based, NIH3T3, luminescence, dose retest (AID 2382); format: functional;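 further: NIH3T3 fibroblasts with HSF1-driven luciferase reporter stressed by proteasome inhibitor MG132; luminescence from HSF1-driven luciferase expression after 8 hours of MG132 stress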
T2 sequence (P38532 whole entry): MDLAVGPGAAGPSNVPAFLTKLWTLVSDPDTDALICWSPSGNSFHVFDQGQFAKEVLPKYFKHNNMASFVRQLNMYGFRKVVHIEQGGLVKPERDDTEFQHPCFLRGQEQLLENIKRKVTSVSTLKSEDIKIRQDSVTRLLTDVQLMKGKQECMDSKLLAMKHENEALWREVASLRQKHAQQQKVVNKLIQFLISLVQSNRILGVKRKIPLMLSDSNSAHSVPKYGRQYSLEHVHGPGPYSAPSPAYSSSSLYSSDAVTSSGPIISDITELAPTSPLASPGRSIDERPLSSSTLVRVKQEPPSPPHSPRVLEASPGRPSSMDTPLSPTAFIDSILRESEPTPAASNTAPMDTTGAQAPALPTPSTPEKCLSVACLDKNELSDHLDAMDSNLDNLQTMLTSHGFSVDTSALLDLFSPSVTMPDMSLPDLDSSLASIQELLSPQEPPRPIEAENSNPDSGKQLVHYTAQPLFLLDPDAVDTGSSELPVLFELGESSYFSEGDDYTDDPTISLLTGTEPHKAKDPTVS

[9] = target: Prothrombin (Homo sapiens, UniProt P00734); experiment: Thrombin 1536 HTS Dose Response Confirmation. [Related pubchem assays: 1046 (Thrombin 1536 HTS; hits were confirmed in this assay)]; format: functional
[10] = cells; format: functional, cell-based
[11] = test system: INS1; experiment: beta cell apoptosis inhibitors, cytokine rescue, dose response, luminescence, retest (AID 449756); format: functional, cell-based; settings: Rattus norvegicus;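 further: cell death triggered by IL-1 beta plus TNF-alpha plus IFN-gamma mixture; protective hits raise ATP signal compared with cytokine alone wells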
[12] = target: Nonstructural protein 1 (Influenza A virus, UniProt Q194T2); format: functional, Influenza A virus (A/California/07/2009(H1N1))
[13] = cells; format: functional, cell-based; remark: listed apart in the source
[14] = target: Cytochrome P450 2C9 (Homo sapiens, UniProt P11712)
[15] = microbe, parasite or virus in culture; format: functional; settings: Mycobacterium tuberculosis
[16] = target: T3, Streptokinase A (Streptococcus pyogenes serotype M1, UniProt P10520); experiment: S. pyogenes streptokinase expression inhibitors, potency, dose response, plasminogen activation absorbance, OD405 (AID 1914); format: functional, Streptococcus pyogenes M1 GAS;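 further: secreted streptokinase activity via plasminogen activation per viability signal from cell pellet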
T3 sequence (P10520 whole entry): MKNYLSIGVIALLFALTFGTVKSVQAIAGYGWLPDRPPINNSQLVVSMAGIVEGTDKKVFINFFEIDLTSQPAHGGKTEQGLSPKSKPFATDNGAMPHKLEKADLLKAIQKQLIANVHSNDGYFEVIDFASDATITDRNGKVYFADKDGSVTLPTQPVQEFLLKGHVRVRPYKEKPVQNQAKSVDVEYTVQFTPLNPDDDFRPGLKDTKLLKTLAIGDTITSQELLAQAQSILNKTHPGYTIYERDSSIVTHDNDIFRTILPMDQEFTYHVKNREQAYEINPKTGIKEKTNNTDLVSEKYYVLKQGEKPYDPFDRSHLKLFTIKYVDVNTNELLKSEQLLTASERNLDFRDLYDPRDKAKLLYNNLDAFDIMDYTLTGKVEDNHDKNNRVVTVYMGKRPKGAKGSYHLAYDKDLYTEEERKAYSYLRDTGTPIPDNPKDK

[17] = target: T2, Heat shock factor protein 1; experiment: HSF1 potentiators in luciferase reporter cells, confirmation, cell-based, NIH3T3, luminescence, dose retest (AID 435004); format: functional;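 further: stress induced by proteasome inhibitor MG132 added 30 min after compound; luciferase reporter driven by HSF1 response element in NIH3T3 cells; actives raise luminescence as potentiators of the MG132 stress response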
[18] = test system: Streptococcus sp. 'group A'; experiment: growth inhibition of control SK(-) GAS strain, dose response, counter-screen for streptokinase expression inhibitor project, luminescence, kanamycin, BacTiterGlo, confirmation (AID 1900); format: functional, organism-based
[19] = test system: Streptococcus; experiment: Group A Streptococcus viability loss, dose response, counter-screen for streptokinase expression inhibitor project, luminescence, BacTiterGlo (AID 1915); format: functional, organism-based;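 further: potency for reduction of bacterial viability or growth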
[20] = HEp-2 cell cytotoxicity, dose response, cytotoxicity control for RSV inhibitor project, HTS (AID 2410); format: functional; settings: human respiratory syncytial virus
[21] = target: Large T antigen (Simian virus 40, UniProt P03070); format: functional, Betapolyomavirus macacae;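 further: Confirmatory-stage PubChem screen for compounds that inhibit SV40 T antigen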
[22] = target: T4, Polyadenylate-binding protein 1 (Homo sapiens, UniProt P11940); experiment: PABP1 MLLE–PAM2 binding inhibitor potency, dose response, biochemical, fluorescence polarization, FITC-PAM2 peptide (AID 602259); format: functional; settings: read-out: IC50_Mean
[23] = target: T4, Polyadenylate-binding protein 1; experiment: PABP1 MLLE–PAM2 interaction inhibitors, dose response, miRNA deadenylation inhibitor project, biochemical, fluorescence polarization, Cy5-PAM2 peptide, secondary (AID 602260); format: functional; settings: read-out: IC50_Mean
[24] = target: T5, Cytochrome P450 1A2 (Homo sapiens, UniProt P05177);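 further: PubChem cytochrome P450 panel assay, CYP1A2 panel member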
T5 sequence (P05177 whole entry): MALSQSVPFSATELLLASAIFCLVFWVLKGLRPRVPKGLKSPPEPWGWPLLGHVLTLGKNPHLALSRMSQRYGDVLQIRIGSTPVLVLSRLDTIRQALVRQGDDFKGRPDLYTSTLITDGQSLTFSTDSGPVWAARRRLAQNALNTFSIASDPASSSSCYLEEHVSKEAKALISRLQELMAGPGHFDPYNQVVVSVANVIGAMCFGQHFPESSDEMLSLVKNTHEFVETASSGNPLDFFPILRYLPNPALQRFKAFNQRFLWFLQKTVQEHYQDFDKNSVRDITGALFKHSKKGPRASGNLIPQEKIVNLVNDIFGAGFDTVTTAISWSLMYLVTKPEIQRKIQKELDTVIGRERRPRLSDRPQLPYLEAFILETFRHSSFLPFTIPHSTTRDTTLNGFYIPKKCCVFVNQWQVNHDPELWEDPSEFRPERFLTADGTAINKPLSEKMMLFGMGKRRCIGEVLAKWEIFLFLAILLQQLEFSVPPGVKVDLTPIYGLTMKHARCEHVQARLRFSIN

[25] = test system: P388; experiment: cells; format: functional; settings: Mus musculus
[26] = test system: P388/ADR; experiment: cells; format: functional; settings: Mus musculus
[27] = test system: SN12K1; experiment: cells; format: functional; settings: Homo sapiens
[28] = target: Genome polyprotein (dengue virus type 2, UniProt P29990); experiment: Dengue-2 NS5 methyltransferase inhibitors, primary screen, biochemical, confirmation dose response (AID 588689); format: functional
[29] = Luminescence Cell-Based Dose Retest to Confirm Inhibitors of Cancer Stem Cells. [Related pubchem assays (depositor defined):AID2717, AID2721]; format: functional; settings: Homo sapiens

Sequence of Cytochrome P450 2C9 (P11712 whole entry): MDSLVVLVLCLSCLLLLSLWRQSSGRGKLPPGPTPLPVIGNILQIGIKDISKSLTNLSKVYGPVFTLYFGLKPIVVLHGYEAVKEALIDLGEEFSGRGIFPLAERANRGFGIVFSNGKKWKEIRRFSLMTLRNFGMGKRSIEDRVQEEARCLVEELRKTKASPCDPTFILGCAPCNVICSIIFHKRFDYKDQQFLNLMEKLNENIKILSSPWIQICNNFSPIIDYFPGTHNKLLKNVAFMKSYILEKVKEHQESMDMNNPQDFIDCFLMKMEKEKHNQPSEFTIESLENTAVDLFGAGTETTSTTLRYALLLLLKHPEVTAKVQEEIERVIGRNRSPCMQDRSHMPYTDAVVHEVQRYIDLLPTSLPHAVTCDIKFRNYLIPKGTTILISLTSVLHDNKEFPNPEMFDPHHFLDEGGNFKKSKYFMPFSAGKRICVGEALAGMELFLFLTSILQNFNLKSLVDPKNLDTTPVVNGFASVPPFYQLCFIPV
Sequence of Cytochrome P450 2D6 (P10635 whole entry): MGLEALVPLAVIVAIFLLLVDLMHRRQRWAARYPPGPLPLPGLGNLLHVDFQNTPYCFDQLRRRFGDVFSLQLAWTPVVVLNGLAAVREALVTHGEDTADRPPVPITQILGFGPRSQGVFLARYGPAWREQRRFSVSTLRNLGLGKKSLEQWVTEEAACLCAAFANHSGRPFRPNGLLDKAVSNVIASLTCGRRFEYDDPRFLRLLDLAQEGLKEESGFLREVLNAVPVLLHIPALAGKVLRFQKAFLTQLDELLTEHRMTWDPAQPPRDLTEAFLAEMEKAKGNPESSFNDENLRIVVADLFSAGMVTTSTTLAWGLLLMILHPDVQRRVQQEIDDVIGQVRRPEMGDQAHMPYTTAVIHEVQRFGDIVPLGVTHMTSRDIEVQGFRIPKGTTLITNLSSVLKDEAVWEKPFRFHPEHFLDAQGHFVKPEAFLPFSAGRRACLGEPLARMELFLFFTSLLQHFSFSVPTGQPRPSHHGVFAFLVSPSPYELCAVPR
Sequence of Large T antigen (P03070 whole entry): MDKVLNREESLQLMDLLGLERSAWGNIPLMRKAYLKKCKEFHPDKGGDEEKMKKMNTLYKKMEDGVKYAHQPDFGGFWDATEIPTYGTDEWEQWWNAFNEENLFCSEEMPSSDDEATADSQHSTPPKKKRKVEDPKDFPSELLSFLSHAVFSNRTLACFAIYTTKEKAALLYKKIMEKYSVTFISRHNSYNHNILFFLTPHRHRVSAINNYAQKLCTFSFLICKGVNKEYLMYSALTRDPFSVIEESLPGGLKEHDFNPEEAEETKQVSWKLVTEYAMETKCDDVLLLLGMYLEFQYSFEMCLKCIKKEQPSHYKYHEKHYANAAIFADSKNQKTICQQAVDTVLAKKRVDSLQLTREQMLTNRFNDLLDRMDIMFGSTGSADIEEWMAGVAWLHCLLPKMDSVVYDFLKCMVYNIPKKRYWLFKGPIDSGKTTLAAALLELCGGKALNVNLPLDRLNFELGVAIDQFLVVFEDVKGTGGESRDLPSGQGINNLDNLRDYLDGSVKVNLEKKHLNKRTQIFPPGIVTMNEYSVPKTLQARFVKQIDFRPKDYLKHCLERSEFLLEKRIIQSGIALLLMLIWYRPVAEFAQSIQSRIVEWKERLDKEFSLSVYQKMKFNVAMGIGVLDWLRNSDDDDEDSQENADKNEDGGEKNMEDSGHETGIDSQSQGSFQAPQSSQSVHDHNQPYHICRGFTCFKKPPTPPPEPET
Sequence of Nonstructural protein 1 (Q194T2 whole entry): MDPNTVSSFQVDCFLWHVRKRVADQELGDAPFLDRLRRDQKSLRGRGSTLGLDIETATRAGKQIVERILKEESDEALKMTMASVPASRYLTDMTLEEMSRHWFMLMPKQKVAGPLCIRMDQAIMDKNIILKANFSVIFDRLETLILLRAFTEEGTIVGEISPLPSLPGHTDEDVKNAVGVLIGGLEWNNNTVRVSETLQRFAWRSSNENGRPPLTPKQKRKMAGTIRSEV
T4 sequence (P11940 whole entry): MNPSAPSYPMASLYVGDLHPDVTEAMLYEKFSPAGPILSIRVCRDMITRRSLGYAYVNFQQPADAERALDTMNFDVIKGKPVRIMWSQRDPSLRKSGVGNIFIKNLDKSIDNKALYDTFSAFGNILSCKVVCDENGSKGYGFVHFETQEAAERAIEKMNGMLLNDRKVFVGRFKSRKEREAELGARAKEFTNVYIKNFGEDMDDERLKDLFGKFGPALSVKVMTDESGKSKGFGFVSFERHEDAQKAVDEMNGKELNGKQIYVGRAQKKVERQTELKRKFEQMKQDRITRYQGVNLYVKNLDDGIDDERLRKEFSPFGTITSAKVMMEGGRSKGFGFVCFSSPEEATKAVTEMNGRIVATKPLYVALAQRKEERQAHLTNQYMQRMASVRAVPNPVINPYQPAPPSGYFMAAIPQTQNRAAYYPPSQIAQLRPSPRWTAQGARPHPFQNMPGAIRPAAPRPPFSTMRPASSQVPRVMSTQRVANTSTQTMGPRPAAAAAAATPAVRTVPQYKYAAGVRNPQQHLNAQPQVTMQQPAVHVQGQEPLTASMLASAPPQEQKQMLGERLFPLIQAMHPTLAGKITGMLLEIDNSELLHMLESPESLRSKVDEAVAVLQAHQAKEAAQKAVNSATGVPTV
Sequence of Genome polyprotein (P29990 2492-3391 limits assumed): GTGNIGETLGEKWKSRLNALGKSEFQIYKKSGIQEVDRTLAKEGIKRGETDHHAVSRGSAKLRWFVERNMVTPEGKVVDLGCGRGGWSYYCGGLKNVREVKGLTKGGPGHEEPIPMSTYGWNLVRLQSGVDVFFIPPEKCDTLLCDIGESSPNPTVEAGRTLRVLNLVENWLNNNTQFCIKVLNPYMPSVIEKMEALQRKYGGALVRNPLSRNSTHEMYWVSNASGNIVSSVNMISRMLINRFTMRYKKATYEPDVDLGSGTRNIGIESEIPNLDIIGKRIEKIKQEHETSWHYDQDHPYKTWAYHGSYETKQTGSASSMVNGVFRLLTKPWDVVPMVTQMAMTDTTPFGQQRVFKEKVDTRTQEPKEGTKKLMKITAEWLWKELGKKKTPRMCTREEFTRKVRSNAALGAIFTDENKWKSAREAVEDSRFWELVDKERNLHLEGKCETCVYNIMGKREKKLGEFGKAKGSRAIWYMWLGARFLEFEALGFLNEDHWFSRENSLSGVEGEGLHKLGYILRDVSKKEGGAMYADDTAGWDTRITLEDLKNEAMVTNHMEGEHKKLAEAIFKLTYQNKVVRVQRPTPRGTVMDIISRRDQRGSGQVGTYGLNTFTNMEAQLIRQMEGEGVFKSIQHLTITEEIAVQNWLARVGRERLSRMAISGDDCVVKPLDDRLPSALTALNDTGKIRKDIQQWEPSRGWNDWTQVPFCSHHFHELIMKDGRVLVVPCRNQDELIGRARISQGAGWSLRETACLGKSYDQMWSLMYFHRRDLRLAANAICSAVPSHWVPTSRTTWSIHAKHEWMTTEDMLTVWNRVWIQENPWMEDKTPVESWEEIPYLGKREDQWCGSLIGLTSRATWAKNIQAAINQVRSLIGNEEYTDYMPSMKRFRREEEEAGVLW

N#Cc1ccc(/C=C/C(=O)c2ccco2)cc1
EC50 [1]: 17.2 µM (active) | EC50 [2]: 16.6 µM (active)

Cc1cccc(N/C=C/C(=C(C#N)C#N)N(C)C)c1
IC50 [3]: 15.6 µM (not active)

O=C(c1ccco1)N1CCC2(CC1)CN(Cc1ccncc1)C2
AC50 [4]: 12.6 µM (inconclusive)

O=C(CCN1C(=O)c2ccccc2C1=O)NC(=S)Nc1cccc(Cl)c1
AC50 [4]: 0.0447 µM (inconclusive)

CCOC(=O)c1c(CSCc2ccccc2)oc2ccc(O)c(CN(C)C)c12
AC50 [5]: 9.79 µM (active) | AC50 [6]: 22.2 µM (active) | AC50 [7]: 10.7 µM (active) | EC50 [8]: > 195 µM (not active)

COc1cccc([C@@H]2Oc3ccc(OC)cc3C(=O)[C@H]2O)c1
AC50 [4]: 3.16 µM (inconclusive)

Cc1ccc(S(=O)(=O)CC(=O)Nc2c(C)n(C)n(-c3ccccc3)c2=O)cc1
IC50 [9]: 3.58 µM (active)

COc1cnc(-c2ccccn2)nc1N(C)C
EC50 [10]: 214 µM (active) | AC50 [11]: 8.4 µM (active) | IC50 [12]: 1.92 µM (active) | EC50 [13]: 8.34 µM (active)

CCn1c(-c2ccccc2Cl)nn(CC(=O)Nc2cc(Cl)ccc2Cl)c1=S
AC50 [14]: 25.1 µM (inconclusive) | AC50 [4]: 25.1 µM (inconclusive)

O=C1OC(Nc2ccc(F)c([N+](=O)[O-])c2)c2ccccc21 (stereo unspecified)
IC50 [9]: > 50 µM (not active)

Clc1ccccc1-c1nccc(NCc2ccccc2)n1
AC50 [4]: 39.8 µM (inconclusive)

CCCC(=O)n1nc(-c2ccco2)nc1N
IC50 [9]: 1.28 µM (active)

COc1ccc(C(C)C)cc1S(=O)(=O)Nc1ccncc1
IC50 [9]: > 50 µM (not active)

O=C1c2cccc3c([N+](=O)[O-])ccc(c23)C(=O)N1O
CC50 [15]: 17.8 µM (active) | EC50 [16]: > 150 µM (not active) | EC50 [17]: 244 µM (active) | EC50 [18]: 999 nM (active) | EC50 [19]: 15.8 µM (active)

CCC(=O)Nc1ccc(C(=O)CSc2nc3ccccc3cc2CC)cc1
IC50 [9]: > 50 µM (not active)

Cn1nc(-c2ccc(Cl)cc2)c2cc(C(=O)N3CCN(c4ccccn4)CC3)sc21
AC50 [5]: 4.02 µM (active) | CC50 [20]: 3.7 µM (active) | AC50 [6]: > 70 µM (inactive) | AC50 [7]: 28.6 µM (active)

CCC(=O)Nc1ccc(N2CCN(CC)CC2)c(Cl)c1
AC50 [4]: 0.0447 µM (inconclusive)

O=C(COC(=O)C12CC3CC(CC(O)(C3)C1)C2)NCCc1ccc(Cl)cc1
IC50 [9]: > 50 µM (not active)

COc1ccc(-n2c(=O)c3c4c(sc3n3c(=S)[nH]nc23)CCC4)cc1
IC50 [21]: 20.4 µM (active)

CC(C)Cn1c(N)c(C(=O)COC(=O)c2ccc(F)cc2)c(=O)n(C)c1=O
IC50 [3]: 4.8 µM (not active)

CC(=O)c1ccc(NC(=O)c2noc(C(C)C)c2[N+](=O)[O-])cc1
IC50 [3]: 3.66 µM (active)

O=C1CC(c2ccccc2)Cc2nc(N3CCc4ccccc4C3)ncc21 (stereo unspecified)
IC50 [3]: 6.43 µM (not active) | IC50 [22]: > 66 µM (inactive) | IC50 [23]: > 66 µM (inactive)

CN(C)c1ccc(-c2cncnc2NCc2cccnc2)cc1
AC50 [14]: 0.501 µM (inconclusive) | AC50 [4]: 12.6 µM (inconclusive)

CC(Cc1ccccc1Sc1ccc(O)cc1)N(C)C (stereo unspecified)
IC50 [21]: 71.9 µM (active)

O=C(c1csnn1)N1CCC2(CC1)CCN(c1ccccn1)CC2
AC50 [14]: 20 µM (inconclusive) | AC50 [24]: 25.1 µM (inconclusive) | AC50 [4]: 20 µM (inconclusive)

CCC(=C(c1ccc(OC)cc1)c1ccc(OC)cc1)c1cn(CC(O)CN2CCN(C)CC2)c2ccccc12 (stereo unspecified)
EC50 [1]: 6.34 µM (active) | EC50 [2]: 7.95 µM (active)

C[N+](C)(C)CCOC(=O)/C=C/c1c[nH]cn1
GI50 [25]: > 500 µM (inactive) | GI50 [26]: > 316 µM (inactive) | GI50 [27]: > 500 µM (inactive)

CN(C)CCOc1cc2c(c3ccccc13)-c1ccccc1C2O (stereo unspecified)
GI50 [25]: 5.02 µM (inactive) | GI50 [26]: 5.77 µM (inactive) | GI50 [27]: 6.62 µM (inactive)

CC1=CC(=O)C(C(C)C)=C/C1=C(\c1cc(C(C)C)c(OP(=O)(O)O)cc1C)c1ccccc1C(=O)O
IC50 [28]: 33.4 µM (active) | AC50 [29]: 2.27 µM (active)

O=S(=O)(O)c1cc(/N=N/c2cc(S(=O)(=O)O)c3ccccc3c2O)ccc1/C=C/c1ccc(/N=N/c2cc(S(=O)(=O)O)c3ccccc3c2O)cc1S(=O)(=O)O
GI50 [25]: > 100 µM (inactive) | GI50 [26]: 36.6 µM (inactive) | GI50 [27]: > 78.9 µM (inactive)

O=CC(NC(=O)N(CCCl)N=O)C(O)C(O)C(O)CO (stereo unspecified)
GI50 [25]: 97.7 µM (inactive) | GI50 [26]: 79.6 µM (inactive) | GI50 [27]: 760 µM (inactive)

CN(C)C(=O)Oc1c(Br)cc(Br)cc1C(=O)OCc1ccccc1
GI50 [25]: 17.9 µM (inactive) | GI50 [26]: 16 µM (inactive) | GI50 [27]: 28.4 µM (inactive)

CC(=O)c1c(O)n(Nc2nc(C)cc(C)n2)c(C)cc1=O
IC50 [12]: 12.9 µM (active)

O=C(OC[C@H]1O[C@@H](OC(=O)c2cc(O)c(O)c(OC(=O)c3cc(O)c(O)c(O)c3)c2)[C@H](OC(=O)c2cc(O)c(O)c(OC(=O)c3cc(O)c(O)c(O)c3)c2)[C@@H](OC(=O)c2cc(O)c(O)c(OC(=O)c3cc(O)c(O)c(O)c3)c2)[C@@H]1OC(=O)c1cc(O)c(O)c(OC(=O)c2cc(O)c(O)c(O)c2)c1)c1cc(O)c(O)c(OC(=O)c2cc(O)c(O)c(O)c2)c1 [TANNIC ACID]
IC50 [21]: < 0.16 µM (active)
